Results published in ChEMBL document CHEMBL2401651, “Discovery of novel P2 substituted 4-biaryl proline inhibitors of hepatitis C virus NS3 serine protease” (Bioorg Med Chem Lett, 2013).

Columns and labels:
[1] = Half life in human liver microsomes; format: ADME, Microsome
[2] = Permeability of the compound in human Caco2 cells; format: ADME, cell-based; conditions: Caco-2, read-out: permeability
[3] = system: Hepatitis C virus; test: Antiviral activity against Hepatitis C virus infected in human […] cells after 72 hrs by luciferase reporter gene assay; format: functional, organism-based, Hepacivirus hominis
[4] = Inhibition of Hepatitis C virus genotype 1 NS3 protease

SMILES | half-life [1] [h] | Papp [2] [×10⁻⁶ cm/s] | EC50 [3] [nM] | IC50 [4] [nM] | Ki [4] [nM]
C=C[C@@H]1C[C@]1(NC(=O)[C@@H]1C[C@@H](n2cnc(-c3ccccc3)c2)CN1C(=O)[C@@H](NC(=O)OC1CCCC1)C(C)(C)C)C(=O)NS(=O)(=O)C1CC1 | 3.68 | 0.2 | 1340 | 1.8 | –
C=C[C@@H]1C[C@]1(NC(=O)[C@@H]1C[C@@H](n2cc(-c3ccccc3)c(C)n2)CN1C(=O)[C@@H](NC(=O)OC1CCCC1)C(C)(C)C)C(=O)NS(=O)(=O)C1CC1 | 0.1 | 0.7 | 320 | 2.5 | –
C=C[C@@H]1C[C@]1(NC(=O)[C@@H]1C[C@@H](c2nc(-c3ccccc3)cs2)CN1C(=O)[C@@H](NC(=O)OC1CCCC1)C(C)(C)C)C(=O)NS(=O)(=O)C1CC1 | 2.38 | 4.4 | 580 | 3.2 | –
C=C[C@@H]1C[C@]1(NC(=O)[C@@H]1C[C@@H](c2csc(-c3ccccc3)n2)CN1C(=O)[C@@H](NC(=O)OC1CCCC1)C(C)(C)C)C(=O)NS(=O)(=O)C1CC1 | 2.25 | 4.6 | 175 | 2.7 | –
C=C[C@@H]1C[C@]1(NC(=O)[C@@H]1C[C@@H](c2csc(-c3cccnc3)n2)CN1C(=O)[C@@H](NC(=O)OC1CCCC1)C(C)(C)C)C(=O)NS(=O)(=O)C1CC1 | – | – | 915 | 12 | –
C=C[C@@H]1C[C@]1(NC(=O)[C@@H]1C[C@@H](c2csc(-c3ccc(OC)cc3)n2)CN1C(=O)[C@@H](NC(=O)OC1CCCC1)C(C)(C)C)C(=O)NS(=O)(=O)C1CC1 | – | – | 530 | 5.2 | –
C=C[C@@H]1C[C@]1(NC(=O)[C@@H]1C[C@@H](c2csc(-c3cccc(OC)c3)n2)CN1C(=O)[C@@H](NC(=O)OC1CCCC1)C(C)(C)C)C(=O)NS(=O)(=O)C1CC1 | – | – | 140 | 3.4 | –
C=C[C@@H]1C[C@]1(NC(=O)[C@@H]1C[C@@H](c2csc(-c3ccccc3OC)n2)CN1C(=O)[C@@H](NC(=O)OC1CCCC1)C(C)(C)C)C(=O)NS(=O)(=O)C1CC1 | – | – | 35 | 0.74 | –
C=C[C@@H]1C[C@]1(NC(=O)[C@@H]1C[C@@H](c2csc(-c3ccccc3OCC)n2)CN1C(=O)[C@@H](NC(=O)OC1CCCC1)C(C)(C)C)C(=O)NS(=O)(=O)C1CC1 | – | – | 37 | 0.78 | –
C=C[C@@H]1C[C@]1(NC(=O)[C@@H]1C[C@@H](c2csc(-c3ccccc3C)n2)CN1C(=O)[C@@H](NC(=O)OC1CCCC1)C(C)(C)C)C(=O)NS(=O)(=O)C1CC1 | – | – | 800 | 6 | –
C=C[C@@H]1C[C@]1(NC(=O)[C@@H]1C[C@@H](c2csc(-c3ccccc3F)n2)CN1C(=O)[C@@H](NC(=O)OC1CCCC1)C(C)(C)C)C(=O)NS(=O)(=O)C1CC1 | – | – | 235 | 1.8 | –
C=C[C@@H]1C[C@]1(NC(=O)[C@@H]1C[C@@H](c2csc(-c3cccc(OC)c3OC)n2)CN1C(=O)[C@@H](NC(=O)OC1CCCC1)C(C)(C)C)C(=O)NS(=O)(=O)C1CC1 | – | – | 240 | 4.1 | –
C=C[C@@H]1C[C@]1(NC(=O)[C@@H]1C[C@@H](c2csc(-c3ccc(OC)cc3OC)n2)CN1C(=O)[C@@H](NC(=O)OC1CCCC1)C(C)(C)C)C(=O)NS(=O)(=O)C1CC1 | – | – | 89 | 2.2 | –
C=C[C@@H]1C[C@]1(NC(=O)[C@@H]1C[C@@H](c2csc(-c3c(OC)cccc3OC)n2)CN1C(=O)[C@@H](NC(=O)OC1CCCC1)C(C)(C)C)C(=O)NS(=O)(=O)C1CC1 | – | – | 2200 | 17 | –
C=C[C@@H]1C[C@]1(NC(=O)[C@@H]1C[C@@H](c2csc(-c3cc(OC)ccc3OC)n2)CN1C(=O)[C@@H](NC(=O)OC1CCCC1)C(C)(C)C)C(=O)NS(=O)(=O)C1CC1 | 1.15 | 7 | 16 | 0.9 | 0.23
C=C[C@@H]1C[C@]1(NC(=O)[C@@H]1C[C@@H](c2csc(-c3cc(C)ccc3OC)n2)CN1C(=O)[C@@H](NC(=O)OC1CCCC1)C(C)(C)C)C(=O)NS(=O)(=O)C1CC1 | – | – | 27 | 1.7 | –
C=C[C@@H]1C[C@]1(NC(=O)[C@@H]1C[C@@H](c2csc(-c3cc(F)ccc3OC)n2)CN1C(=O)[C@@H](NC(=O)OC1CCCC1)C(C)(C)C)C(=O)NS(=O)(=O)C1CC1 | – | – | 28 | 1.1 | –
C=C[C@@H]1C[C@]1(NC(=O)[C@@H]1C[C@@H](c2csc(-c3cc(OC)ccc3OC)n2)CN1C(=O)[C@@H](NC(=O)OC1CCCC1)C(C)(C)C)C(=O)NS(=O)(=O)C1(C)CC1 | 0.95 | 12 | 9 | 1.1 | –
C=C[C@@H]1C[C@]1(NC(=O)[C@@H]1C[C@@H](n2cc(-c3ccccc3)nn2)CN1C(=O)[C@@H](NC(=O)OC1CCCC1)C(C)(C)C)C(=O)NS(=O)(=O)C1CC1 | 1.57 | 1.1 | 430 | 2.7 | –
